Test system: lashes and adjacent hairs of the eyelids
Assay: Observation of lashes of glaucoma patients treated with bimatoprost in only one eye
Type: in vivo
Conditions: glaucoma patient treated in one eye only
Source text: In the course of treating patients having glaucoma, treatment may only be appropriate in one eye. […] The lash appearance on the lids of the treated eyes would have appeared quite attractive if it represented a bilateral phenomenon. As a result of its asymmetric nature, the long lashes on one side could be construed as disturbing from a cosmetic standpoint. A systemic examination was preformed as a result of the asymmetric phenomenon. It soon became apparent that this altered appearance was not an isolated finding. […] Definite differences could be identified to varying degrees in the lashes and adjacent hairs of all patients who were taking the drug on a unilateral basis for longer than 6 months.
The changes in the lashes were apparent on gross inspection in several patients once attention was focused on the issue. In those with light colored hair and lashes, the differences were only seen easily with the aid of the high magnification and lighting capabilities of the slit lamp biomicroscope. In the course of glaucoma follow-up examination, attention is generally immediately focused on the eye itself. As a result of the high power magnification needed only one eye is seen at a time and the eye is seen at a high enough power that the lashes are not in focus. […]

SMILES: CCNC(=O)CCC/C=C\C[C@@H]1[C@@H](/C=C/[C@@H](O)CCc2ccccc2)[C@H](O)C[C@@H]1O [bimatoprost]
- lashes in the treated eye versus the non-treated eye: longer, thicker, and fuller
